# Results reported in patent US20020137779A1, “Use of L-2-oxothiazolidine-4-carboxylic acid for the treatment of type 2 diabetes” (Advanced Biochemicals Inc., priority 2001, published 2002).
# Assays:
# [1] = test system: type 2 diabetes mice (C57BL/KsJ-db/db Jcl); experiment: serum insulin after a single oral dose and glucose loading (Example 2); assay type: in vivo, mouse; conditions: for Conc. of insulin: glucose 1 g/kg i.p. after 5 hours, serum 30 minutes later
# Procedure: Second step; Determining optimum L-2-oxothiazolidine-4-carboxylic acid concentration which is appropriate for enhancing insulin secretion and lowering blood glucose levels in a type 2 diabetes mouse, by administering 0-400 mg/kg of L-2-oxothiazolidine-4-carboxylic acid orally,
# The present example is to show an appropriate concentration of L-2-oxothiazolidine-4-carboxylic acid for the purpose of improving the ability of insulin secretion and lowering blood glucose levels, by varying the concentrations of L-2-oxothiazolidine-4-carboxylic acid in a single oral dose to type 2 diabetes mice.
# The present inventors ascertained the effect of various concentrations of L-2-oxothiazolidine-4-carboxylic acid on lowering blood glucose level and insulin secretion. in which experiments enough sterilized-feed and water was given to 6 week old C57BL mice(Samtako, purchased from Clea, Japan) in the light condition of 12L: 12D for a week, bred the mice in the incubator of A.B.J Co.(Building 1 Chonbuk National University Medical School, Chonju, Korea) for a week, and no feed but water was given to the mice for 13 hours before insulin and glucose levels were measured.
# 0.2 ml of PBS (pH 7.4) was orally given to the control group(5 mice) using feeding needle, and 1.5-400 mg/kg of L-2-oxothiazolidine-4-carboxylic acid, dissolved in 0.2 ml of PBS and its pH was adjusted to 7.2 with 3 N NaOH(Junsei, Japan), was orally administered to experimental group(5 mice). After 5 hours of the drug administration, glucose(Sigma, USA) was injected intraperitoneally at the concentration of 1 g/kg, and incubated the mice for 30 minutes. Immediately after the mice were anesthetized with ether, the thoraces of the mice was incised to take blood, serum was isolated, and the insulin concentration of the mice-serum was measured by radioimmunoassay using rat insulin assay kit(Amersham Pharmacia Bio Co., USA).
# pancreatic islet cells = experiment: insulin secretion of pancreatic islets isolated from mice, radioimmunoassay; assay type: cell-based, C57BL mouse
# Procedure: First step; After isolating pancreatic islets from a C57BL mouse according to Lacy and Kotianovsky(Diabetes, 16, 35-39, 1967), the islets were incubated for 60 min. at 37°C. with 250 […] of L-2-oxothiazolidine-4-carboxylic acid alone or together with 2.8-25 mM of glucose, and insulin from the supernatant was measured by radioimmunoassay,
# The isolation of pancreatic islets from a C57BL mouse(weight; 20 g, Samtako, Daejeon, Korea) was performed according to the method of Lacy and Kotianovsky et al.(Diabetes, 16; 35-39, 1967). The pancreas of ether-anesthetized mouse was distended by infusion with Hank's balanced salt solution(HBSS, GIBCO, USA) containing 1 mg/ml of collagenase (Sigma, USA) via common bile duct and isolated. The isolated pancreas was digested for 20 min at 37 C while stirring homogeneously. After removing acinar cells by washing with HBSS, pancreatic islets of similar size were collected under dissecting microscope. 2.8-25 mM of glucose(Sigma, USA) alone or together with 250 ^μM-[…] of L-2-oxothiazolidine-4-carboxylic acid were administered to the isolated 10 pancreatic islets in 100 ^μl of Krebs Ringer bicarbonate(Sigma, USA) buffer solution containing 10 mM of Hepes, the islets were incubated for 60 min. at 37 °C., and insulin in the supernatant, from which the pancreatic β-islet cells was removed, was measured. […]
# [2] = test system: type 2 diabetes mice (C57BL/KsJ-db/db Jcl); experiment: blood glucose levels after glucose intake, single oral administration (Example 3); assay type: in vivo, mouse; conditions: for blood glucose level / decrease of blood glucose level vs control group: 30 min after glucose intake
# Procedure: Third step; Determining the abilities of lowering blood glucose level and increasing insulin secretion ability following glucose loading, by administering a single dose of 8-80 mg/kg of L-2-oxothiazolidine-4-carboxylic acid to a type 2 diabetes mouse, Fourth step; Examining the effect of long term administration of L-2-oxothiazolidine-4-carboxylic acid on lowering blood glucose levels,
# Under the same breeding condition as in EXAMPLE 2, no feed but water was given to 7 week old type 2 diabetes mice (C57BL/KsJ-db/db Jel, Clea, Japan) for 13 hours. 0.2 ml of PBS was orally given to the control group(5 mice) using feeding needle, and 8-80 mg/kg of L-2-oxothiazolidine-4-carboxylic acid dissolved in 0.2 ml of PBS was orally administered to the experimental group(5 mice). After 5 hours of drug administration, 1 g/kg of glucose (Sigma, USA) was intraperitoneally injected and the mice were maintained for 30 to 120 minutes. The blood glucose levels of type 2 diabetes mice at various time points were measured by the glucose oxidase method using a glucose analyzer(One-touch Basic, Lifescan, USA), and serum insulin levels were determined using a radioimmunoassay, as described in EXAMPLE 2.
# [3] = test system: type 2 diabetes mice (C57BL/KsJ-db/db Jcl); experiment: blood insulin concentration after oral administration for four weeks (Example 5); assay type: in vivo, mouse; conditions: 80 mg/kg per day for four weeks
# Procedure: Fifth step Determining the ability of insulin secretion after oral administration of L-2-oxothiazolidine-4-carboxylic acid for 4 weeks to a 7 week old type 2 diabetes mouse, and
# Seven week old type 2 diabetes mice were maintained as in EXAMPLE 2. 0.2 ml of PBS (pH 7.4) was given to a control group(4 mice) twice a day for four weeks, and 80 mg/kg of L-2-oxothiazolidine-4-carboxylic acid dissolved in 0.2 ml of PBS of which pH was adjusted to 7.4 with 3 N NaOH(Junsei, Japan), was orally administered to an experimental group(4 mice). Five hours after the drug was finally administered, 1 g/kg of glucose was intraperitoneally injected. Tails were cut, blood samples were taken from the tails at 60 min. time intervals until 180 min., the samples were left at room temperature for three hours, sera were collected, and the insulin concentration was measured by radioimmunoassay.
# mice = mice pre-treated with L-2-oxothiazolidine-4-carboxylic acid, acetaminophen 9.5 mmol/kg oral; cited from earlier work
smiles,measurement,setting,value
"O=C1NC(C(=O)O)CS1 [OTC, L-2-oxothiazolidine-4-carboxylic acid]",insulin secretion ability compared to the control group,"[1]; 3-20 mg/kg single oral dose, p<0.05",improvement of insulin secretion ability
same,insulin secretion ability compared to the control group,"[1]; 40-160 mg/kg single oral dose, p<0.001",more than 2 times
same,Conc. of insulin,[1]; OTC 1.5 mg/kg single oral dose,878 pmol/L
same,Conc. of insulin,[1]; OTC 3 mg/kg single oral dose,908 pmol/L
same,Conc. of insulin,[1]; OTC 10 mg/kg single oral dose,1103 pmol/L
same,Conc. of insulin,[1]; OTC 20 mg/kg single oral dose,"1,205 pmol/l"
same,Conc. of insulin,[1]; OTC 40 mg/kg single oral dose,"1,535 pmol/l"
same,Conc. of insulin,[1]; OTC 80 mg/kg single oral dose,"1,750 pmol/l"
same,Conc. of insulin,[1]; OTC 160 mg/kg single oral dose,1684 pmol/L
same,Conc. of insulin,[1]; OTC 400 mg/kg single oral dose,1350 pmol/L
same,insulin secretion ability compared to the control group,"[1]; over 400 mg/kg single oral dose, p<0.005",salient improvement of insulin secretion ability
same,insulin secretion of pancreatic islet cells,"pancreatic islet cells; 500 μM−2 mM OTC in the presence of 17.5 mM glucose, 60 min at 37°C",increased insulin secretion in a dose-dependent manner
same,glucose dependence of the stimulation of insulin secretion from pancreatic islets,pancreatic islet cells; OTC 500 μM-2 mM,the presence of glucose is required for the stimulation of insulin secretion
same,blood glucose level,[2]; 40 mg/kg single oral dose,295 ± 8.5 mg/dL
same,decrease of blood glucose level vs control group,[2]; 40 mg/kg single oral dose,34.27%
same,blood glucose level,[2]; 80 mg/kg single oral dose,269 ± 6.85 mg/dL
same,decrease of blood glucose level vs control group,[2]; 80 mg/kg single oral dose,40.01%
same,duration of the lowering effect of blood glucose levels after the intake of glucose,[2]; 40-80 mg/kg single oral dose,about 60 min
same,duration of the effect on insulin concentration,[3],about 120 min
same,insulin concentration,[3]; 120 min after glucose intake,1285.04 ± 135.60 pmol/L
same,increase of insulin concentration compared to the control group,[3]; after 120 min,4.93 times
same,insulin concentration,[3]; fasted state,450 ± 43.50 pmol/L
same,mortality rate,mice,less than 10%
